Source: patent US9963442B2, “Pyridones as herbicides” (E I DU PONT DE NEMOURS AND COMPANY, priority 2014, dated 2018)

How the values were obtained:
Format in all cases: in vivo
[1] = system: Italian ryegrass (Lolium multiflorum); experiment: Test A preemergence, directed soil spray; details: approx. 10 days
Excerpt: (§1) Seeds of plant species selected from barnyardgrass (Echinochloa crus-galli), kochia (Kochia scoparia), ragweed (common ragweed, Ambrosia elatior), Italian ryegrass (Lolium multiflorum), giant foxtail (Setaria faberii), and pigweed (Amaranthus retroflexus) were planted into a blend of loam soil and sand and treated preemergence with a directed soil spray using test chemicals formulated in a non-phytotoxic solvent mixture which included a surfactant. At the same time, plants selected from these weed species and also wheat (Triticum aestivum), corn (Zea mays), blackgrass (Alopecurus myosuroides), and galium (catchweed bedstraw, Galium aparine) were planted in pots containing the same blend of loam soil and sand and treated with postemergence applications of test chemicals formulated in the same manner. Plants ranged in height from 2 to 10 cm and were in the one- to two-leaf stage for the postemergence treatment. Treated plants and untreated controls were maintained in a greenhouse for approximately 10 days, after which time all treated plants were compared to untreated controls and visually evaluated for injury. Plant response ratings, summarized in Table A, are based on a 0 to 100 scale where 0 is no effect and 100 is complete control. A dash (-) response means no test result.

[2] = system: barnyardgrass (Echinochloa crus-galli); experiment: Test A preemergence, directed soil spray; details: approx. 10 days
Excerpt: as §1

[3] = system: giant foxtail (Setaria faberii); experiment: Test A preemergence, directed soil spray; details: approx. 10 days
Excerpt: as §1

kochia (Kochia scoparia) [4] = experiment: Test A preemergence, directed soil spray; details: approx. 10 days
Excerpt: as §1

[5] = system: pigweed (Amaranthus retroflexus); experiment: Test A preemergence, directed soil spray; details: approx. 10 days
Excerpt: as §1

[6] = system: ragweed (common ragweed, Ambrosia elatior); experiment: Test A preemergence, directed soil spray; details: approx. 10 days
Excerpt: as §1

[7] = system: Italian ryegrass (Lolium multiflorum); experiment: Test A postemergence application; details: approx. 10 days
Excerpt: as §1

[8] = system: barnyardgrass (Echinochloa crus-galli); experiment: Test A postemergence application; details: approx. 10 days
Excerpt: as §1

[9] = system: blackgrass (Alopecurus myosuroides); experiment: Test A postemergence application; details: approx. 10 days
Excerpt: as §1

corn (Zea mays) = experiment: Test A postemergence application; details: approx. 10 days
Excerpt: as §1

[10] = system: galium (catchweed bedstraw, Galium aparine); experiment: Test A postemergence application; details: approx. 10 days
Excerpt: as §1

[11] = system: giant foxtail (Setaria faberii); experiment: Test A postemergence application; details: approx. 10 days
Excerpt: as §1

kochia (Kochia scoparia) [12] = experiment: Test A postemergence application; details: approx. 10 days
Excerpt: as §1

[13] = system: pigweed (Amaranthus retroflexus); experiment: Test A postemergence application; details: approx. 10 days
Excerpt: as §1

[14] = system: ragweed (common ragweed, Ambrosia elatior); experiment: Test A postemergence application; details: approx. 10 days
Excerpt: as §1

[15] = system: wheat (Triticum aestivum); experiment: Test A postemergence application; details: approx. 10 days
Excerpt: as §1

[16] = system: barnyardgrass (Echinochloa crus-galli); experiment: Test B flooded paddy test; set-up: key: 0 = no effect, 100 = complete control; details: Flood, 250 g ai/ha applied to paddy water at 2-leaf stage; visually evaluated after 13 to 15 days; scale 0 (no effect) to 100 (complete control)
Method: (§2) Plant species in the flooded paddy test selected from rice (Oryza sativa), sedge, umbrella (small-flower umbrella sedge, Cyperus difformis), ducksalad (Heteranthera limosa), and barnyardgrass (Echinochloa crus-galli) were grown to the 2-leaf stage for testing. At time of treatment, test pots were flooded to 3 cm above the soil surface, treated by application of test compounds directly to the paddy water, and then maintained at that water depth for the duration of the test. Treated plants and controls were maintained in a greenhouse for 13 to 15 days, after which time all species were compared to controls and visually evaluated. Plant response ratings, summarized in Table B, are based on a scale of 0 to 100 where 0 is no effect and 100 is complete control. A dash (-) response means no test result.

[17] = system: ducksalad (Heteranthera limosa); experiment: Test B flooded paddy test; set-up: key: 0 = no effect, 100 = complete control; details: Flood, 250 g ai/ha applied to paddy water at 2-leaf stage; visually evaluated after 13 to 15 days; scale 0 (no effect) to 100 (complete control)
Method: as §2

rice (Oryza sativa) = experiment: Test B flooded paddy test; set-up: key: 0 = no effect, 100 = complete control; details: Flood, 250 g ai/ha applied to paddy water at 2-leaf stage; visually evaluated after 13 to 15 days; scale 0 (no effect) to 100 (complete control)
Method: as §2

[18] = system: sedge, umbrella (small-flower umbrella sedge, Cyperus difformis); experiment: Test B flooded paddy test; set-up: key: 0 = no effect, 100 = complete control; details: Flood, 250 g ai/ha applied to paddy water at 2-leaf stage; visually evaluated after 13 to 15 days; scale 0 (no effect) to 100 (complete control)
Method: as §2

O=c1cccc(Oc2ncc(Cl)cn2)n1-c1cccc(OC(F)(F)F)c1 [Compound 3, 6-[(5-chloro-2-pyrimidinyl)oxy]-1-[3-(trifluoromethoxy)phenyl]-2(1H)-pyridinone]
Plant response rating (0 to 100 scale, 0 no effect, 100 complete control), Ryegrass, Italian ([1]; 1000 g ai/ha): 50
Plant response rating (0 to 100 scale, 0 no effect, 100 complete control), Barnyardgrass ([2]; 1000 g ai/ha): 80
Plant response rating (0 to 100 scale, 0 no effect, 100 complete control), Foxtail, Giant ([3]; 1000 g ai/ha): 100
Plant response rating (0 to 100 scale, 0 no effect, 100 complete control), Kochia (kochia (Kochia scoparia) [4]; 1000 g ai/ha): 40
Plant response rating (0 to 100 scale, 0 no effect, 100 complete control), Pigweed ([5]; 1000 g ai/ha): 70
Plant response rating (0 to 100 scale, 0 no effect, 100 complete control), Ragweed ([6]; 1000 g ai/ha): 20
Plant response rating (0 to 100 scale, 0 no effect, 100 complete control), Ryegrass, Italian ([7]; 1000 g ai/ha): 30
Plant response rating (0 to 100 scale, 0 no effect, 100 complete control), Barnyardgrass ([8]; 1000 g ai/ha): 70
Plant response rating (0 to 100 scale, 0 no effect, 100 complete control), Blackgrass ([9]; 1000 g ai/ha): 40
Plant response rating (0 to 100 scale, 0 no effect, 100 complete control), Corn (corn (Zea mays); 1000 g ai/ha): 20
Plant response rating (0 to 100 scale, 0 no effect, 100 complete control), Galium ([10]; 1000 g ai/ha): 100
Plant response rating (0 to 100 scale, 0 no effect, 100 complete control), Foxtail, Giant ([11]; 1000 g ai/ha): 100
Plant response rating (0 to 100 scale, 0 no effect, 100 complete control), Kochia (kochia (Kochia scoparia) [12]; 1000 g ai/ha): 90
Plant response rating (0 to 100 scale, 0 no effect, 100 complete control), Pigweed ([13]; 1000 g ai/ha): 90
Plant response rating (0 to 100 scale, 0 no effect, 100 complete control), Ragweed ([14]; 1000 g ai/ha): 30
Plant response rating (0 to 100 scale, 0 no effect, 100 complete control), Wheat ([15]; 1000 g ai/ha): 30
Plant response rating, Barnyardgrass [16]: 0
Plant response rating, Ducksalad [17]: 0
Plant response rating, Rice (rice (Oryza sativa)): 0
Plant response rating, Sedge, Umbrella [18]: 0

O=c1cccc(Oc2ncc(Cl)cn2)n1-c1ncc(F)cn1 [Compound 4]
Plant response rating (0 to 100 scale, 0 no effect, 100 complete control), Ryegrass, Italian ([1]; 31 g ai/ha): 0
Plant response rating (0 to 100 scale, 0 no effect, 100 complete control), Ryegrass, Italian ([1]; 125 g ai/ha): 0
Plant response rating (0 to 100 scale, 0 no effect, 100 complete control), Barnyardgrass ([2]; 31 g ai/ha): 0
Plant response rating (0 to 100 scale, 0 no effect, 100 complete control), Barnyardgrass ([2]; 125 g ai/ha): 0
Plant response rating (0 to 100 scale, 0 no effect, 100 complete control), Foxtail, Giant ([3]; 31 g ai/ha): 0
Plant response rating (0 to 100 scale, 0 no effect, 100 complete control), Foxtail, Giant ([3]; 125 g ai/ha): 20
Plant response rating (0 to 100 scale, 0 no effect, 100 complete control), Kochia (kochia (Kochia scoparia) [4]; 31 g ai/ha): 0
Plant response rating (0 to 100 scale, 0 no effect, 100 complete control), Kochia (kochia (Kochia scoparia) [4]; 125 g ai/ha): 70
Plant response rating (0 to 100 scale, 0 no effect, 100 complete control), Pigweed ([5]; 31 g ai/ha): 70
Plant response rating (0 to 100 scale, 0 no effect, 100 complete control), Pigweed ([5]; 125 g ai/ha): 70
Plant response rating (0 to 100 scale, 0 no effect, 100 complete control), Ragweed ([6]; 31 g ai/ha): 0
Plant response rating (0 to 100 scale, 0 no effect, 100 complete control), Ragweed ([6]; 125 g ai/ha): 0
Plant response rating (0 to 100 scale, 0 no effect, 100 complete control), Ryegrass, Italian ([7]; 31 g ai/ha): 0
Plant response rating (0 to 100 scale, 0 no effect, 100 complete control), Ryegrass, Italian ([7]; 125 g ai/ha): 0
Plant response rating (0 to 100 scale, 0 no effect, 100 complete control), Barnyardgrass ([8]; 31 g ai/ha): 0
Plant response rating (0 to 100 scale, 0 no effect, 100 complete control), Barnyardgrass ([8]; 125 g ai/ha): 0
Plant response rating (0 to 100 scale, 0 no effect, 100 complete control), Blackgrass ([9]; 31 g ai/ha): 20
Plant response rating (0 to 100 scale, 0 no effect, 100 complete control), Blackgrass ([9]; 125 g ai/ha): 20
Plant response rating (0 to 100 scale, 0 no effect, 100 complete control), Corn (corn (Zea mays); 31 g ai/ha): 0
Plant response rating (0 to 100 scale, 0 no effect, 100 complete control), Corn (corn (Zea mays); 125 g ai/ha): 10
Plant response rating (0 to 100 scale, 0 no effect, 100 complete control), Galium ([10]; 31 g ai/ha): 30
Plant response rating (0 to 100 scale, 0 no effect, 100 complete control), Galium ([10]; 125 g ai/ha): 50
Plant response rating (0 to 100 scale, 0 no effect, 100 complete control), Foxtail, Giant ([11]; 31 g ai/ha): 0
Plant response rating (0 to 100 scale, 0 no effect, 100 complete control), Foxtail, Giant ([11]; 125 g ai/ha): 0
Plant response rating (0 to 100 scale, 0 no effect, 100 complete control), Kochia (kochia (Kochia scoparia) [12]; 31 g ai/ha): 40
Plant response rating (0 to 100 scale, 0 no effect, 100 complete control), Kochia (kochia (Kochia scoparia) [12]; 125 g ai/ha): 80
Plant response rating (0 to 100 scale, 0 no effect, 100 complete control), Pigweed ([13]; 31 g ai/ha): 50
Plant response rating (0 to 100 scale, 0 no effect, 100 complete control), Pigweed ([13]; 125 g ai/ha): 70
Plant response rating (0 to 100 scale, 0 no effect, 100 complete control), Ragweed ([14]; 31 g ai/ha): 10
Plant response rating (0 to 100 scale, 0 no effect, 100 complete control), Ragweed ([14]; 125 g ai/ha): 20
Plant response rating (0 to 100 scale, 0 no effect, 100 complete control), Wheat ([15]; 31 g ai/ha): 0
Plant response rating (0 to 100 scale, 0 no effect, 100 complete control), Wheat ([15]; 125 g ai/ha): 0
Plant response rating, Barnyardgrass [16]: 0
Plant response rating, Ducksalad [17]: 0
Plant response rating, Rice (rice (Oryza sativa)): 0
Plant response rating, Sedge, Umbrella [18]: 0
